We go through 9 compounds from patent publication US11667651B2, “Aminopyridine derivatives as phosphatidylinositol phosphate kinase inhibitors” (HiberCell, Inc., priority 2017, dated 2023).

Structures are written as SMILES.

One test concerns the target T1, PIP4K2B (Homo sapiens, UniProt P78356).
T1 construct: made in house; host or cells: E. coli
T1 sequence (P78356 1-416): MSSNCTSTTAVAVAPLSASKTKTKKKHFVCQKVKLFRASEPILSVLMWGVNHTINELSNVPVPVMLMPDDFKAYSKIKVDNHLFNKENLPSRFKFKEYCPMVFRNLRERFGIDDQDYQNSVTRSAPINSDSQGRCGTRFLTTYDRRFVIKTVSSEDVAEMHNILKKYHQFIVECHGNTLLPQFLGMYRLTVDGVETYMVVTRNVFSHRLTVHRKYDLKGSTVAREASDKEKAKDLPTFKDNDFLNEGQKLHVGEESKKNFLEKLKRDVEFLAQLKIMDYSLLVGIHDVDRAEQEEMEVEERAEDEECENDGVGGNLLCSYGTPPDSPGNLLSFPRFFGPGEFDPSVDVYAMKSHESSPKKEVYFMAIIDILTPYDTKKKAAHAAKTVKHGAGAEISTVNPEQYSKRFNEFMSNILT
In words: Trans-FI P kinase assay PIP4K2B (Table 4). Type of test: biochemical. The note with it: compounds listed under IC50 bins; read-out: Trans-FI P kinase assays: PIP4K2B IC50. The method, boiled down: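 Transcreener FI detection (Ex 584/Em 623) of GDP, converted via calibration curve, gives IC50 from residual activity versus log concentration (highest 4.8 μM). Reaction: 80 μM PI5P plus DOPE carrier, 100 μM GTP, 5 nM GST-tagged enzyme, pH 7.3 HEPES with MgCl2 and 5% DMSO, 2 h after 1 h enzyme-compound preincubation at 27° C.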

Another test has as its target T2, PIP4K2A (Homo sapiens, UniProt P48426).
T2 sequence (P48426 1-406): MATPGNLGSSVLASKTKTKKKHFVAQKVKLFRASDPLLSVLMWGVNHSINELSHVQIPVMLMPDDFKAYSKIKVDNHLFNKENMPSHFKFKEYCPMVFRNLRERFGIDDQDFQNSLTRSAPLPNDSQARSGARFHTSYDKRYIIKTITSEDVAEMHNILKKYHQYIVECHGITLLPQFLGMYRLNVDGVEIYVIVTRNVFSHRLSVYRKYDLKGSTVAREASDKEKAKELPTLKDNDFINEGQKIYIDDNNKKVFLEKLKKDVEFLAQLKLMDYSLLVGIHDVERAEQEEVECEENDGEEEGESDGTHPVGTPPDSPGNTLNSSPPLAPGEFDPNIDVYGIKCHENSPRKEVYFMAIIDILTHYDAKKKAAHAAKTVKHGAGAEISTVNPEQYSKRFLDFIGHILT
The experiment in a line: ADP-glo kinase assay PIP4K 2A (Table 3). It counts as biochemical. The arrangement: made in house; host or cells: E. coli. To be noted: compounds listed under IC50 bins. As for the experimental part: Dilution series of the compounds were prepared in DMSO at 100 times the final assay concentration (n1=n0/3 in 10 points). The compounds were further diluted to three times the assay concentration in assay buffer (20 mM MOPS pH 7.2, 25 mM magnesium chloride, 0.005% Tween 20). 6 μL of the diluted compounds were added to a 384 well assay plate followed by 9 μL of a mix consisting of 4 nM PIP4K2A (full length protein, SignalChem) and 100 μM PI(5)P diC8 (Tebu-Bio). Enzyme and compounds were pre-incubated at room temperature for 15 minutes.
Then 3 μL of a solution containing 60 μM ATP (Promega) in assay buffer was added to the wells containing compound and enzyme and mixing was performed by pipetting several times. The reaction was incubated at room temperature for 1 h. Then 18 μL of ADP-Glo™ Reagent (Promega) was added to stop the kinase reaction and deplete the unconsumed ATP, mixing was performed by pipetting several times. The plate was incubated at room temperature for 40 minutes before addition of 36 μL of Kinase Detection Reagent (Promega) to convert ADP to ATP and introduce luciferase and luciferin to detect ATP. The reaction was incubated at room temperature for 40 minutes before the luminescence was measured in a in a Victor 3V 1420 multilabel counter (Perkin Elmer).
Percent inhibition of the compounds as compared to dimethyl sulfoxide treated control samples was calculated. Compound concentration versus percent inhibition were fitted to generate IC50 values. […]
(In general: In ADP-Glo the light output rises with the ADP produced.)

Take `CN(C)C/C=C/C(=O)NCC(=O)Nc1ccc(CN2CCN(c3cncc(Nc4ccc(-c5ccc(N6CCCC6=O)cc5)cn4)c3)C2=O)cc1` [Example 172, (E)-4-(dimethylamino)-N-(2-oxo-2-((4-((2-oxo-3-(5-((5-(4-(2-oxopyrrolidin-1-yl)phenyl)pyridin-2-yl)amino)pyridin-3-yl)imidazolidin-1-yl)methyl)phenyl)amino)ethyl)but-2-enamide]: the IC50 (usually the concentration that gives 50% inhibition) on PIP4K2B lay in the range of 10 to 100 nM; at PIP4K2A, 1 to 10 nM.
Turning to `O=C1CCCN1c1ccc(-c2ccc(Nc3cnc4c(c3)N3C(=O)CC[C@@H]3CO4)nc2)cc1F` [Example 173, (R)-2-((5-(3-fluoro-4-(2-oxopyrrolidin-1-yl)phenyl)pyridin-2-yl)amino)-6,6a,7,8-tetrahydro-9H-pyrido[2,3-b]pyrrolo[1,2-d][1,4]oxazin-9-one], the IC50 on PIP4K2B and on PIP4K2A was 10 to 100 nM each time.
With `Cc1cc(Nc2cnc3c(c2)N2C(=O)CC[C@H]2CO3)ncc1-c1ccc(N2CCCC2=O)cc1` [Example 176, (S)-2-((4-methyl-5-(4-(2-oxopyrrolidin-1-yl)phenyl)pyridin-2-yl)amino)-6,6a,7,8-tetrahydro-9H-pyrido[2,3-b]pyrrolo[1,2-d][1,4]oxazin-9-one], the IC50 at PIP4K2B lay within 10 to 100 nM; against PIP4K2A, 1 to 10 nM.
With `CC(C)c1cc(Nc2cnc3c(c2)N2C(=O)CC[C@H]2CO3)ncc1-c1ccc(N2CCCC2=O)c(F)c1` [Example 181, (S)-2-((5-(3-fluoro-4-(2-oxopyrrolidin-1-yl)phenyl)-4-isopropylpyridin-2-yl)amino)-6,6a,7,8-tetrahydro-9H-pyrido[2,3-b]pyrrolo[1,2-d][1,4]oxazin-9-one], the IC50 on PIP4K2B is 10 to 100 nM; at PIP4K2A it was 1 to 10 nM.
Regarding `O=C1CCCN1c1ccc(-c2cnc(Nc3cnc4c(c3)N3C(=O)CC[C@H]3CO4)cc2C2CC2)cc1F` [Example 182, (S)-2-((4-cyclopropyl-5-(3-fluoro-4-(2-oxopyrrolidin-1-yl)phenyl)pyridin-2-yl)amino)-6,6a,7,8-tetrahydro-9H-pyrido[2,3-b]pyrrolo[1,2-d][1,4]oxazin-9-one], the values for the concentration for half-maximal inhibition (IC50) on PIP4K2B and on PIP4K2A were 10 to 100 nM and 1 to 10 nM, respectively.
`O=C1CCCN1c1ccc(-c2cnc(Nc3cnc4c(c3)N3C(=O)CC[C@H]3CO4)nc2)cc1F` [Example 187, (S)-2-((5-(3-fluoro-4-(2-oxopyrrolidin-1-yl)phenyl)pyrimidin-2-yl)amino)-6,6a,7,8-tetrahydro-9H-pyrido[2,3-b]pyrrolo[1,2-d][1,4]oxazin-9-one]: the half-maximal inhibitory concentration (IC50) on PIP4K2B and on PIP4K2A was 10 to 100 nM in each case.
For `Cc1cc(-c2ccc(N3CCCC3=O)cc2)cnc1Nc1cnc2c(c1)N1C(=O)CC[C@H]1CO2` [Example 194, (S)-2-((3-methyl-5-(4-(2-oxopyrrolidin-1-yl)phenyl)pyridin-2-yl)amino)-6,6a,7,8-tetrahydro-9H-pyrido[2,3-b]pyrrolo[1,2-d][1,4]oxazin-9-one], the IC50 at PIP4K2B and on PIP4K2A was > 1000 nM in each case.
Consider `COc1nc(Nc2cnc3c(c2)N2C(=O)CC[C@H]2CO3)ncc1-c1ccc(N2CCCC2=O)cc1` [Example 195, (S)-2-((4-methoxy-5-(4-(2-oxopyrrolidin-1-yl)phenyl)pyrimidin-2-yl)amino)-6,6a,7,8-tetrahydro-9H-pyrido[2,3-b]pyrrolo[1,2-d][1,4]oxazin-9-one], for which the IC50 at PIP4K2B was 1 to 10 nM; on PIP4K2A it was ≤ 1 nM.
On to `Cc1nc(Nc2cnc3c(c2)N2C(=O)CC[C@H]2CO3)ncc1-c1ccc(N2CCCC2=O)cc1` [Example 196, (S)-2-((4-methyl-5-(4-(2-oxopyrrolidin-1-yl)phenyl)pyrimidin-2-yl)amino)-6,6a,7,8-tetrahydro-9H-pyrido[2,3-b]pyrrolo[1,2-d][1,4]oxazin-9-one], for which the IC50 was 1 to 10 nM on PIP4K2B and 10 to 100 nM against PIP4K2A.
